The target in one experiment is EGFR L858R (Homo sapiens (Human), UniProt P00533, L858R). Kind of experiment: Biochemical EGFR inhibition assay, EGFR L858R. The conditions noted are these: Caliper mobility shift; 1.0 mM ATP or ATP Km; read-out: Enz EGFR_L858R IC50.
A further experiment deals with EGFR (d746-750) (Homo sapiens (Human), UniProt P00533, DEL746-750). Kind of experiment: Biochemical EGFR inhibition assay, EGFR (d746-750). Particulars: Caliper mobility shift; 1.0 mM ATP or ATP Km; read-out: Enz EGFR_Exon19-del746-750 IC50.
Experiment [1] has as its target pEGFR (Tyr1068) in PC-9 cells (Ex19Del) (Homo sapiens (Human), UniProt P00533, DEL746-750). As to the kind of experiment: PC-9 pEGFR AlphaLISA assay. Particulars: 4 hours incubation, p-EGFR (Tyr1068) AlphaLISA, read-out: Ext pEGFR_PC-9 Ex19Del IC50. It counts as cell-based. In a few lines: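 Cells seeded in phenol-free DMEM with 10% FBS adhered overnight at 37° C./5% CO2, then were exposed for 4 hours to a 4-fold, 10-point compound dilution series. After lysis, phospho-EGFR was read by AlphaLISA SureFire Ultra, and IC50 was fitted from percent inhibition versus log concentration.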

Molecules are shown by their SMILES.

Sequence of EGFR (d746-750) (P00533 other isoform, or with tags, fused parts or gaps del 1-694/del 746-750 limits assumed): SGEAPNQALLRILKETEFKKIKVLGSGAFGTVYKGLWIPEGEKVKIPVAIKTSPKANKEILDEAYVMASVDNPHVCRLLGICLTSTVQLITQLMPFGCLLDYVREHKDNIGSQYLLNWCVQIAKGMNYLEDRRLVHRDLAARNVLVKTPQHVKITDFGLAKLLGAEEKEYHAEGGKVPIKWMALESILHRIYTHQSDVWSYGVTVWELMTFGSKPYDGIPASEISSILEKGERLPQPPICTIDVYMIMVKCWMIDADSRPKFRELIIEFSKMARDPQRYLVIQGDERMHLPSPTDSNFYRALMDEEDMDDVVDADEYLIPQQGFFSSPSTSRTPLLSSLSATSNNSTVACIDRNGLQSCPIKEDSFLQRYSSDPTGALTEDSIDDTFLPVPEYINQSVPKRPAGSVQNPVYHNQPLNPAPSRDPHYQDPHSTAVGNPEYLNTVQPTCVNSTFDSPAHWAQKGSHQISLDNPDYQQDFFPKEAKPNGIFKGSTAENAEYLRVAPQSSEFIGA
Sequence of EGFR L858R (P00533 25-1210 L858R): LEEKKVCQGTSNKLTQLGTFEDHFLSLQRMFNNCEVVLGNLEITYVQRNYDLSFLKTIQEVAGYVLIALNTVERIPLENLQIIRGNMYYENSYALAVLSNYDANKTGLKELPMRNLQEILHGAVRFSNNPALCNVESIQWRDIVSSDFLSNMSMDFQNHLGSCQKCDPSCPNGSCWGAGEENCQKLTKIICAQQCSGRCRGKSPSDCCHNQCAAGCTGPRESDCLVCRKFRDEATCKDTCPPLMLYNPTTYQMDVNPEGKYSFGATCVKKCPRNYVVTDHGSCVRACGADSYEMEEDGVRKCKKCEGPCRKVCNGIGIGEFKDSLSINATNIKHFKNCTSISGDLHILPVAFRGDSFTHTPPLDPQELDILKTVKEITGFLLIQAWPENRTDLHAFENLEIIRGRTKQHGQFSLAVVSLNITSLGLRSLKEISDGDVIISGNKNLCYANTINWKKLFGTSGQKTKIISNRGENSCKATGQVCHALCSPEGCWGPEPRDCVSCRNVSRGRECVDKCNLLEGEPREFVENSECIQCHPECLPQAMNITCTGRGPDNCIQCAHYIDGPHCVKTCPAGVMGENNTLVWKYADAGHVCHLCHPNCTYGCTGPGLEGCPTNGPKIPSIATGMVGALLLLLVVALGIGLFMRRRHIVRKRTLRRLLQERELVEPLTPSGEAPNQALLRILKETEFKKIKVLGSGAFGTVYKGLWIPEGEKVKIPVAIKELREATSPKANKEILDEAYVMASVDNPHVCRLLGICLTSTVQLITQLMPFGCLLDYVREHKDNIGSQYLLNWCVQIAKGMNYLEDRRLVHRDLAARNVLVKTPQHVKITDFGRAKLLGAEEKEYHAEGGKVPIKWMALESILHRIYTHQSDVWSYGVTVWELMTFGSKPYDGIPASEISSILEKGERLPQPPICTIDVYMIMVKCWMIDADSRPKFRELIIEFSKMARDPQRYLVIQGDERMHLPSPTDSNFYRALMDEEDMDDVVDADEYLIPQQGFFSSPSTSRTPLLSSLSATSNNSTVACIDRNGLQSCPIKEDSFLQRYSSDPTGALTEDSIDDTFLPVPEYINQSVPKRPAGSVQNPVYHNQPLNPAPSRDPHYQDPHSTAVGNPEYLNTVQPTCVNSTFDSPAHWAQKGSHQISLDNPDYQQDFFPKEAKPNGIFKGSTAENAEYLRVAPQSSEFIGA
Sequence of pEGFR (Tyr1068) in PC-9 cells (Ex19Del) (P00533 other isoform, or with tags, fused parts or gaps del 746-750): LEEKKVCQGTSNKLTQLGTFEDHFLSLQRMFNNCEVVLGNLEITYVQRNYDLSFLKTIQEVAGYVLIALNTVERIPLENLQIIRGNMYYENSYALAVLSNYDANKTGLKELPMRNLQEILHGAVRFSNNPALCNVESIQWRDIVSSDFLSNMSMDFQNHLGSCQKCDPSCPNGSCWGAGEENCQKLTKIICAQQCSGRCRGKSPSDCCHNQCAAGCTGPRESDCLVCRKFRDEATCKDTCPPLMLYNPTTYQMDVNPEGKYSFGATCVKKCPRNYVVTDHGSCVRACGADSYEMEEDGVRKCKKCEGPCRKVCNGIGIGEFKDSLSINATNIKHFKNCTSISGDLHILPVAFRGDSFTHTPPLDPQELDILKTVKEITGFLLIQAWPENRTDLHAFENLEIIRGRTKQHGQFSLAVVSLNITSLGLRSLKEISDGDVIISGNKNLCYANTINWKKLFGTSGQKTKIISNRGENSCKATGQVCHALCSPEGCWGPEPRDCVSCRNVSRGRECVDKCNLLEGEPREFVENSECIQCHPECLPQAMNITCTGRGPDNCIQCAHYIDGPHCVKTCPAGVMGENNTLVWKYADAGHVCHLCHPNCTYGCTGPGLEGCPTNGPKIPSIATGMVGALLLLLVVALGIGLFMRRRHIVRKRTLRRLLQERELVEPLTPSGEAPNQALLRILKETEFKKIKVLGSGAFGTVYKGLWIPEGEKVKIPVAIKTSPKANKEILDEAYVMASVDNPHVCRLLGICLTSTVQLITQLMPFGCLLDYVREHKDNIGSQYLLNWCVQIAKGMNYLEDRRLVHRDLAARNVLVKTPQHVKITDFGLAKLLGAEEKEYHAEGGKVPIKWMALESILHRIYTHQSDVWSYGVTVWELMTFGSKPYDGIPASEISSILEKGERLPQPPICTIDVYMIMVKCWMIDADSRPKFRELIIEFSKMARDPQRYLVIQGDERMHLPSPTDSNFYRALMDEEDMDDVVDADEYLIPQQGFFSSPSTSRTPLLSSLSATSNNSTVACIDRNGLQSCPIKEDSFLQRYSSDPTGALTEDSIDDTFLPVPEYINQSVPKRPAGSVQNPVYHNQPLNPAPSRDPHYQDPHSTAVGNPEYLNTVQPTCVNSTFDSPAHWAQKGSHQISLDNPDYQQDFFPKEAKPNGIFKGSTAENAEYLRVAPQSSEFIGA

As for `COc1cc2ncnc(-c3cn(C)nc3-c3ccccc3)c2cc1NC(=O)[C@@H](C)CN(C)C` (single isomer, unassigned) [Example 238, (S)-3-(dimethylamino)-N-(7-methoxy-4-(1-methyl-3-phenyl-1H-pyrazol-4-yl)quinazolin-6-yl)-2-methylpropanamide or (R)-3-(dimethylamino)-N-(7-methoxy-4-(1-methyl-3-phenyl-1H-pyrazol-4-yl)quinazolin-6-yl)-2-methylpropanamide], the IC50 – broadly, the concentration needed to halve the response being measured – on EGFR L858R is 12 nM; at EGFR (d746-750) it was 8.2 nM; in experiment [1], 26 nM.
`COc1cc2ncnc(-c3cnn(CC(F)F)c3-c3ccc(F)cc3)c2cc1C1(O)CC1` [Example 490]: the 50% inhibitory concentration (IC50) was found to be 82 nM at EGFR L858R, 237 nM at EGFR (d746-750) and 836 nM in experiment [1].
Regarding `COc1cc2ncnc(-c3cn(C)nc3-c3ccccc3)c2nc1NC(=O)C1(C(F)F)CC1` [Example 369, 1-(difluoromethyl)-N-(7-methoxy-4-(1-methyl-3-phenyl-1H-pyrazol-4-yl)pyrido[3,2-d]pyrimidin-6-yl)cyclopropane-1-carboxamide], the values for the IC50 (on EGFR L858R; on EGFR (d746-750); in experiment [1]) were 1.3 nM, 0.7 nM and 0.9 nM, respectively.
`COc1cc2ncnc(-c3cn(C)nc3-c3ccc(F)cc3)c2nc1NC(=O)[C@@]12C[C@@H]1CN(C)C2` (single isomer, unassigned) [Example 410, (1S,5S)—N-(4-(3-(4-fluorophenyl)-1-methyl-1H-pyrazol-4-yl)-7-methoxypyrido[3,2-d]pyrimidin-6-yl)-3-methyl-3-azabicyclo[3.1.0]hexane-1-carboxamide or (1R,5R)—N-(4-(3-(4-fluorophenyl)-1-methyl-1H-pyrazol-4-yl)-7-methoxypyrido[3,2-d]pyrimidin-6-yl)-3-methyl-3-azabicyclo[3.1.0]hexane-1-carboxamide]: the values for the IC50 (on EGFR L858R; at EGFR (d746-750); in experiment [1]) were 2.9 nM, 1.1 nM and 2.5 nM, respectively.
For the compound `COc1cc2ncnc(-c3cn(C)nc3-c3ccccc3)c2cc1N1CCC[C@@H](O)C1` [Example 165, (R)-1-(7-methoxy-4-(1-methyl-3-phenyl-1H-pyrazol-4-yl)quinazolin-6-yl)piperidin-3-ol], the IC50 was determined as 3.4 nM at EGFR L858R, 1.7 nM on EGFR (d746-750) and 10.2 nM in experiment [1].
For `COc1cc2ncnc(-c3cn(C)nc3-c3ccccc3)c2cc1NC(=O)C(C)N(C)C` (stereo not drawn) [Example 220, 2-(dimethylamino)-N-(7-methoxy-4-(1-methyl-3-phenyl-1H-pyrazol-4-yl)quinazolin-6-yl)propanamide] the same measures were 5 nM, 1.7 nM and 4.7 nM.
For `COc1cc2ncnc(-c3cn(C)nc3-c3ccccc3)c2nc1NC(=O)[C@@]1(C(F)(F)F)CCN(C)C1` (single isomer, unassigned) [Example 394, (R)—N-(7-methoxy-4-(1-methyl-3-phenyl-1H-pyrazol-4-yl)pyrido[3,2-d]pyrimidin-6-yl)-1-methyl-3-(trifluoromethyl) pyrrolidine-3-carboxamide or (S)—N-(7-methoxy-4-(1-methyl-3-phenyl-1H-pyrazol-4-yl)pyrido[3,2-d]pyrimidin-6-yl)-1-methyl-3-(trifluoromethyl) pyrrolidine-3-carboxamide] the same measures were 6.9 nM, 2.7 nM and 9.3 nM.
For `CCOc1cc2ncnc(-c3cn(CC(F)F)nc3-c3ccccc3)c2cc1CO` [Example 123, (4-(1-(2,2-difluoroethyl)-3-phenyl-1H-pyrazol-4-yl)-7-ethoxyquinazolin-6-yl)methanol] the same measures were 1.6 nM, 1 nM and 3 nM.
Turning to `COc1cc2ncnc(-c3cn(C)nc3-c3ccccc3)c2cc1OC(=O)N1CCN2CCCC2C1` (stereo in doubt) [Example 84, 7-methoxy-4-(1-methyl-3-phenyl-1H-pyrazol-4-yl)quinazolin-6-yl (S)-hexahydropyrrolo[1,2-a]pyrazine-2(1H)-carboxylate], the results for the IC50 (at EGFR L858R; at EGFR (d746-750); in experiment [1]) were 4.9 nM, 3.3 nM and 6.5 nM, respectively.
The matching figures for `[2H]C([2H])([2H])n1ncc(-c2ncnc3cc(OC)c(NC(=O)C4(C(F)(F)F)CC4)nc23)c1-c1ccccc1` [Example 492]: 70.7 nM, 47.3 nM and 636 nM.
For `COc1cc2ncnc(-c3cn(C)nc3-c3ccccc3)c2cc1NC(=O)[C@@]1(C)CCCO1` (single isomer, unassigned) [Example 259, (R)—N-(7-methoxy-4-(1-methyl-3-phenyl-1H-pyrazol-4-yl)quinazolin-6-yl)-2-methyltetrahydrofuran-2-carboxamide or (S)—N-(7-methoxy-4-(1-methyl-3-phenyl-1H-pyrazol-4-yl)quinazolin-6-yl)-2-methyltetrahydrofuran-2-carboxamide] the same measures were 2.6 nM, 1.1 nM and 4.2 nM.
On to `COc1cc2ncnc(-c3cn(C)nc3-c3ccccc3)c2cc1NC(=O)c1ccc(C2CC2)nc1` [Example 229, 6-cyclopropyl-N-(7-methoxy-4-(1-methyl-3-phenyl-1H-pyrazol-4-yl)quinazolin-6-yl) nicotinamide], for which the IC50 turned out to be 3.5 nM at EGFR L858R, 1.7 nM on EGFR (d746-750) and 3.7 nM in experiment [1].
Turning to `COc1cc2ncnc(-c3cn(C)nc3-c3ccccc3F)c2nc1NC(=O)[C@]12COC[C@H]1C2` (single isomer, unassigned) [Example 386, (1S,5S)—N-(4-(3-(2-fluorophenyl)-1-methyl-1H-pyrazol-4-yl)-7-methoxypyrido[3,2-d]pyrimidin-6-yl)-3-oxabicyclo[3.1.0]hexane-1-carboxamide or (1R,5R)—N-(4-(3-(2-fluorophenyl)-1-methyl-1H-pyrazol-4-yl)-7-methoxypyrido[3,2-d]pyrimidin-6-yl)-3-oxabicyclo[3.1.0]hexane-1-carboxamide], the IC50 is 2.1 nM at EGFR L858R, 1.1 nM on EGFR (d746-750) and 1.7 nM in experiment [1].
For `COc1cc2ncnc(-c3cn(C)nc3-c3ccccc3)c2nc1NC(=O)C1(C(F)(F)F)CCOCC1` [Example 383, N-(7-methoxy-4-(1-methyl-3-phenyl-1H-pyrazol-4-yl)pyrido[3,2-d]pyrimidin-6-yl)-4-(trifluoromethyl)tetrahydro-2H-pyran-4-carboxamide], the IC50 on EGFR L858R was determined as 4.5 nM; at EGFR (d746-750), 1.7 nM; in experiment [1], 5.7 nM.
For `COc1cc2ncnc(-c3cn(C)nc3-c3ccccc3)c2nc1NC(=O)C1(OC)CC1` [Example 436, 1-methoxy-N-(7-methoxy-4-(1-methyl-3-phenyl-1H-pyrazol-4-yl)pyrido[3,2-d]pyrimidin-6-yl)cyclopropane-1-carboxamide] the same measures were 8 nM, 1 nM and 4.6 nM.
As for `COc1cc2ncnc(-c3cn(C)nc3-c3ccccc3)c2cc1NC(=O)c1cnc(C2CC2)s1` [Example 209, 2-cyclopropyl-N-(7-methoxy-4-(1-methyl-3-phenyl-1H-pyrazol-4-yl)quinazolin-6-yl)thiazole-5-carboxamide], the IC50 on EGFR L858R came to 1.5 nM; at EGFR (d746-750), 0.8 nM; in experiment [1], 0.9 nM.
The matching figures for `COc1cc2ncnc(-c3cn(C)nc3-c3ccccc3)c2cc1OC(=O)N1CCN(C)CC1(C)C` [Example 78, 7-methoxy-4-(1-methyl-3-phenyl-1H-pyrazol-4-yl)quinazolin-6-yl 2,2,4-trimethylpiperazine-1-carboxylate]: 7 nM, 2.4 nM and 8.1 nM.
The matching figures for `COc1cc2ncnc(-c3cn(C)nc3-c3ccccc3)c2cc1N1CC[C@H](F)[C@@H](O)C1` (single isomer, unassigned) [Example 172, (3S,4S)-4-fluoro-1-(7-methoxy-4-(1-methyl-3-phenyl-1H-pyrazol-4-yl)quinazolin-6-yl) piperidin-3-ol or (3R,4R)-4-fluoro-1-(7-methoxy-4-(1-methyl-3-phenyl-1H-pyrazol-4-yl)quinazolin-6-yl) piperidin-3-ol]: 6.7 nM, 2.2 nM and 11.7 nM.
For the compound `COc1cc2ncnc(-c3cn(C)nc3-c3ccccc3F)c2cc1NC(=O)C1(CN(C)C)CC1` [Example 188, 1-((dimethylamino)methyl)-N-(4-(3-(2-fluorophenyl)-1-methyl-1H-pyrazol-4-yl)-7-methoxyquinazolin-6-yl)cyclopropane-1-carboxamide], the IC50 on EGFR L858R amounted to 2 nM; at EGFR (d746-750) it was 0.8 nM; in experiment [1], 1.3 nM.
The matching figures for `CCOc1cc2ncnc(-c3cn(C)nc3-c3ccccc3F)c2nc1NC(=O)[C@@]12C[C@@H]1CN(C)C2` (single isomer, unassigned) [Example 400, (1S,5S)—N-(7-ethoxy-4-(3-(2-fluorophenyl)-1-methyl-1H-pyrazol-4-yl)pyrido[3,2-d]pyrimidin-6-yl)-3-methyl-3-azabicyclo[3.1.0]hexane-1-carboxamide or (1R,5R)—N-(7-ethoxy-4-(3-(2-fluorophenyl)-1-methyl-1H-pyrazol-4-yl)pyrido[3,2-d]pyrimidin-6-yl)-3-methyl-3-azabicyclo[3.1.0]hexane-1-carboxamide]: 141 nM, 1.6 nM and 2 nM.

These data come from patent publication US20250236608A1, “EGFR INHIBITORS” (Blueprint Medicines Corporation, priority 2022, published 2025).
